We go through 77 compounds from a melting point compilation (Tetko et al.).

Molecules are shown by their SMILES. Bounds are passed on as bounds.

Broadly, the melting point is the temperature of the solid-liquid transition. `CC(=O)Oc1cc(C(C)C)c(OCCN(C)C)cc1C` showed a melting point of 144 °C.

With `Clc1ccc(C(c2ccccc2)N2CCNCC2)cc1` (configuration not stated), the melting point was 65 to 75 °C.

The compound `NC(=O)Oc1ccc(Cc2ccccc2)cc1` returned a melting point of 148 °C.

`c1ccc(-c2sc(-c3ccccc3)c(-c3ccccc3)c2-c2ccccc2)cc1` returned a melting point of 182 °C.

`c1ccc2c(c1)nnn2C1CCCCC1` returned a melting point of 104 °C.

`Cc1nn2c(C)nnc2s1`: the melting point stood at 93 °C.

`O=c1[nH]c(=O)c2cn[nH]c2[nH]1` displayed a melting point of 300 °C.

In turn, `COc1ccc(C(=O)CC(=O)c2ccc(C(C)(C)C)cc2)cc1` yielded a melting point of 83.5 °C.

For the compound `NS(=O)(=O)c1ccc(N2C(=O)CC(c3ccccc3)C2=O)c(Cl)c1` (configuration not stated), the melting point amounted to 206 °C.

For `NC(CO)(Cc1ccccc1)C(=O)O` (racemic), the melting point was 245 to 263 °C.

In turn, `O=C(c1ccccn1)C(O)c1ccccn1` (configuration not stated) gave a melting point of 151 to 158 °C.

`C=CCCCC=C` displayed a melting point of -129 °C.

As to `O=C(O)CCCCc1ccc(F)cc1`, the melting point came to 74 °C.

`O=C(C=NO)Nc1cc(Cl)ccc1Cl` gave a melting point of 198 to 201 °C.

`O=C1C=C[C@H](CO)O1` displayed a melting point of 39 to 45 °C.

`CC1(C)OC(=O)C(=Cc2ccc([N+](=O)[O-])cc2)C(=O)O1` gave a melting point of 301 °C.

`O=C1C(Br)=C(c2ccccc2)c2ccccc21` displayed a melting point of 111 °C.

Compound `O=C(O)c1ccc(-c2cccs2)s1` had a melting point of 177 to 178 °C.

In turn, `c1ccc2c(c1)-c1ccccc1C2c1ccncc1` yielded a melting point of 142 to 145 °C.

The compound `Cc1c(Cl)cccc1C(=O)O` yielded a melting point of 164 °C.

`CC(=O)CCc1cc2c(cc1[N+](=O)[O-])CCC(C)N2` (configuration not stated) had a melting point of 95 °C.

Regarding `Cc1cccc2c(O)cc(C(F)(F)F)nc12`, the melting point fell in the range of 128 to 131 °C.

On to `BrCc1c(CBr)c(CBr)c2ccccc2c1CBr`, for which the melting point was 197 °C.

For the compound `O=C(O)CSc1cccc2cccc(Cl)c12`, the melting point worked out at 156 °C.

With `COC(=O)CCC(C)C1CCC2=C3CCC4CC(OC(C)=O)CCC4(C)C3CC(OC(C)=O)C21C` (configuration not stated), the melting point came out at 234 °C.

Compound `CCCCCCCCCCCC(=O)OCCOCCO` had a melting point of 17.5 °C.

`O=c1[nH]cc(Cl)cc1Cl` came in with a melting point of 180 °C.

Consider `Cc1nc(Cl)c(C(N)=O)c(C)c1Cl`, for which the melting point is 172 °C.

Consider `Cc1cc(N)c([N+](=O)[O-])cc1C`, for which the melting point turned out to be 141 °C.

On to `CC(=O)Nc1ccc(C(=O)O)cc1[N+](=O)[O-]`, for which the melting point stood at 226 °C.

Regarding `O=C(O)CSCCS(=O)(=O)c1ccc(Cl)cc1`, the melting point is 127 to 129 °C.

`CC(=O)NC1=NC(=O)C(=Cc2coc3ccc(Br)cc3c2=O)N1C` came in with a melting point of 259 to 261 °C.

In turn, `O=c1oc2cc(O)ccc2s1` showed a melting point of 160 °C.

As for `COc1cc(O)c2c(=O)c3cc(O)ccc3oc2c1`, the melting point worked out at 266 °C.

In turn, `CC(=O)CSc1ccc(C)cc1` had a melting point of 96 to 98 °C.

Consider `Nc1c(F)cc(Cl)cc1Br`, for which the melting point lay in the range of 41 to 43 °C.

With `Cn1c(=O)c(C2=NNC(=O)C2=NNc2ccc(Cl)cc2)c(O)c2ccccc21`, the melting point amounted to 240 °C.

On to `CCc1ccccc1Cc1ccccc1N`, for which the melting point is 35 °C.

The compound `Cc1nnsc1-c1nnc(S)n1C1CC1` registered a melting point of 212 to 213 °C.

In turn, `c1ccc(-c2cc3c(ccc4nonc43)nn2)cc1` came in with a melting point of 201 to 203 °C.

In turn, `COC(=O)c1ccc(C)c(OC)c1` registered a melting point of 49 °C.

`O=Cc1ccc(-c2ccsc2)cc1`: the melting point is 101 to 102 °C.

`O=[N+]([O-])c1cnccc1O` displayed a melting point of 271 to 273 °C.

For `COc1cc(C(=O)O)cc(Cl)c1O`, the melting point is 245 °C.

`O=C(O)CCc1ccccc1Cl` displayed a melting point of 95.5 °C.

Consider `O=[N+]([O-])c1ccc(-c2nnc3n2CN(c2ccccn2)CS3)cc1`, for which the melting point was over 300 °C.

Compound `Brc1ccc(Oc2cccc(Br)c2)cc1` came in with a melting point of under 20 °C.

In turn, `FC(F)(Cl)C(Cl)(Cl)Cl` gave a melting point of 40.6 °C.

`CC(C)(O)C#Cc1ccccn1` yielded a melting point of 83 °C.

For the compound `CSc1nc2cc(NCc3ccc4c(c3)OCO4)ccc2[nH]1`, the melting point fell in the range of 146 to 148 °C.

`CC(C)(C)[C@H](N)CO`: the melting point fell in the range of 30 to 34 °C.

In turn, `COc1ccc(C(=O)C(O)c2ccc(OC)cc2)cc1` (configuration not stated) came in with a melting point of 112 °C.

Turning to `O=C(O)C(F)(F)C(F)(F)C(F)(F)C(F)(F)C(F)(F)C(F)(F)C(F)(F)C(F)(F)C(=O)O`, the melting point was in the range of 154 to 160 °C.

`O=C1CCC(=O)N1CCO` had a melting point of 60 °C.

Take `CC(C)(C)OC(=O)NC(COC1CCCCO1)CS(=O)(=O)c1ccccc1` (configuration not stated): the melting point lay within 100 to 104 °C.

Take `CCOC(=O)c1c(SC)nn(S(=O)(=O)c2ccc(C)cc2)c1N`: the melting point was 151 to 153 °C.

`N#Cc1nc[nH]c1C#N` registered a melting point of 175 °C.

Compound `Clc1ccc2nonc2c1` registered a melting point of 37 to 40 °C.

Regarding `Cc1ccc(-c2csc(/C(C#N)=N\Nc3ccc(Cl)cc3Cl)n2)cc1`, the melting point was 211 °C.

`COc1ccc(CNc2ccc([N+](=O)[O-])c3nonc23)cc1` showed a melting point of 176 to 180 °C.

In turn, `CCOC(=O)C(/C=C1\C(=O)C2(C)CCC1C2(C)C)(/C=C1\C(=O)C2(C)CCC1C2(C)C)CC(C)C` (configuration not stated) had a melting point of 156 °C.

`CC(C)(C)c1cc2c(O)c(c1)Cc1cc(C(C)(C)C)cc(c1O)Cc1cc(C(C)(C)C)cc(c1O)Cc1cc(C(C)(C)C)cc(c1O)Cc1cc(C(C)(C)C)cc(c1O)C2` displayed a melting point of 310 to 312 °C.

With `CNC(=O)Oc1cc(C)cc(C(C)C)c1`, the melting point turned out to be 87 °C.

For `CCNC(N)=S`, the melting point worked out at 112 °C.

As to `CN(C)NN=C1N=CN=C1C(N)=O`, the melting point was determined as 205 °C.

In the case of `Cc1ccccc1CC(NC(=O)OC(C)(C)C)C(=O)O` (racemic), the melting point was 125 to 129 °C.

Turning to `Oc1nn(-c2ccc(Br)cc2)cc1Br`, the melting point is 199 to 201 °C.

For `O=C(O)c1ccc(C(=O)O)c(Br)c1`, the melting point was in the range of 295 to 297 °C.

`Nc1ccc(S)cc1`: the melting point was determined as 46 °C.

Take `COc1ccc2ccccc2c1C#N`: the melting point is 94 to 98 °C.

In turn, `CC(C)(C)c1ccc(N)c(N)c1` had a melting point of 98 to 100 °C.

`OCc1ccc(OC2CCOCC2)cc1`: the melting point is 81.5 to 82.5 °C.

`c1cnc2cccnc2c1`: the melting point amounted to 75 °C.

The compound `CC(=O)OCC(=O)[C@@]1(O)CC[C@H]2[C@@H]3CCC4=CC(=O)C=C[C@]4(C)[C@H]3[C@@H](O)C[C@@]21C` displayed a melting point of 238 °C.

`Nc1ccccc1C(=O)OCc1ccccc1` returned a melting point of 76 to 78 °C.

Compound `NC1=C(C(=O)Nc2ccccc2)C(c2ccc(Br)cc2)C2Oc3ccccc3C2O1` (configuration not stated) displayed a melting point of 282 °C.

`CC(Cl)C(C)(C)C` (configuration not stated) yielded a melting point of -1 °C.
